The values that follow come from patent publication US9657031B2, “Ant-ligands molecules and biological applications” (MITOLOGICS, priority 2008, dated 2017).

For one series, the system named is lymphocytes (PBMC). Description: Toxicity on lymphocytes (PBMC). The series is classed as cell-based. The following applies: doses below 400 μM; data not shown.
Series [1] concerns S. cerevisiae WT (W303) and JL1-3 (ΔANT 1, 2 & 3) strains. Description: Clonogenic assays on S. cerevisiae strains deficient for ANT isoforms. The series is classed as cell-based. The note with it: ΔANT 1, 2 & 3 vs WT; viability at 48 h after 2 h incubation. As for the experimental part:
The importance of ANT isoforms in cytotoxic effects of the selected ANT-ligands has been evaluated using S. cerevisiae strains deficient for ANT isoforms (FIG. 5). Clonogenic assays on these strains are used to ensure that cytotoxic effects of the ANT-ligands are really due to the expression of ANTs in the cells.
FIG. 5: Target validation of compound 1 using ANT-deficient yeasts • (A) Quantitative estimation of yeasts viability at 48 h after 2 h incubation with compound 1 • (B) Illustration of WT (W303) and JL1-3 (LANT1, 2 and 3) yeast strains growth on plates at 48 h after 2 h incubation with compound 1.

In series [2] the test system is HT-29 and BxPC3 tumor cell lines. Description: Multiparametric analysis of cell death (flow cytometry) on tumor cell lines. The series is classed as cell-based, human. The following applies: for effect of caspase / cathepsin B inhibitors on apoptosis induced by the ANT-ligand: z-VAD-fmk, Q-VD-OPH, Z-FA-fmk, Bax/Bak deletion. The procedure: FIG. 2: The ANT-ligand is pro-apoptotic on HT-29 and BxPC3 tumor cell lines • (A) Chemical structure of compound 1 • (B) Multiparametric analysis (chromatin condensation, mitochondrial transmembrane potential (L′m) loss, plasma membrane permeabilization, phosphatidylserine exposure) of cellular effects of the ANT-ligand on BxPC3 cell line after 48 h treatment. • (C) Effects of compound 1 on ADP/ATP translocator activity of ANT measured on isolated mitochondria from mice liver or HT-29 tumor cell line (IC50 is given in μM based on ANT assays) and on viability of HT-29 and BxPC3 tumor cell lines (LD50 is given in μM based on MTT assays at 48 h).
(§1) MTT assay was used to evaluate the viability of a large range of human cell lines in presence of small molecules. Dose-response experiments allow us to determine a lethal-dose 50 (LD50; dose killing 50% of the cellular population) for each compound on a particular cell type after a 48-hour incubation. This viability assay is used as a first screening assay to identify cell-permeant molecules able to induce cell death (cytotoxic) or growth delay (cytostatic) among the 956 molecules of the ANT-ligands library. We have chosen to select molecules having an LD50 below 50 μM on HT-29 (colon adenocarcinoma) or BxPC3 (pancreatic adenocarcinoma) cell lines. These molecules come into the ANT activity screening assays and the efficient ANT-inhibitors (IC50 below 50 μM) are investigated for their mechanisms of cell death induction. Indeed, the characterisation of cell death consists in a multiparametric analysis of treated-cells by flow cytometry (FacsCalibur, Becton Dickinson) where can be measured (1) the loss of mitochondrial trans-membrane potential (L′m; DIOC6 labelling), (2) the plasma membrane permeabilization (Propidium Iodide labeling) and (3) the phosphatidylserines exposure (Annexin-V-fitc labelling).
On the technique in general: In flow cytometry, cells or beads pass a laser one at a time.

In series [3] the test system is Wi-38 (normal lung fibroblasts). Description: Multiparametric analysis of cellular effects on Wi-38 cell line. Format: cell-based. The note with it: Wi-38, compared to HT-29, BxPC3, 48 h and 72 h treatments. The procedure: FIG. 4: Compound 1 induces low toxicity on normal fibroblast Wi-38 • A) Expression pattern of ANT isoforms in HT-29, BxPC3 and Wi-38 (normal lung fibroblasts) cell lines after RT-PCR reaction on total RNA • (B) Multiparametric analysis (mitochondrial transmembrane potential, plasma membrane permeabilization, phosphatidylserine exposure) of cellular effects of the ANT-ligand on Wi-38 cell line after 48 h and 72 h treatments.
as §1, with “We have chosen to select molecules having an LD50 below 50 μM on HT-29 (colon adenocarcinoma) or BxPC3 (pancreatic adenocarcinoma) cell lines. These molecules come into the ANT activity screening assays and the efficient ANT-inhibitors (IC50 below 50 μM) are investigated for their mechanisms of cell death induction.” left out

Consider `O=C(O)CCCCn1c(SCc2ccccc2Cl)nc2ccsc2c1=O` [Compound 1], for which the “toxicity on lymphocytes (PBMC)” value with lymphocytes (PBMC) is listed as “no sign of toxicity”. In addition, the “resistance of ANT-deficient yeast strain versus wild-type” value in series [1] is “more resistant to the compound 1 than the wild-type (WT) control strain”. Moreover, the “apoptosis hallmarks (mitochondrial potential loss, phosphatidylserine exposure, plasma membrane permeabilization, chromatin condensation)” value in series [2] (multiparametric analysis) is reported as “induces classical hallmarks of apoptosis”. The mitochondrial trans-membrane potential result in series [2] (tumor cells) was “induces dissipation of the mitochondrial trans-membrane potential”. Further, the “effect of caspase / cathepsin B inhibitors on apoptosis induced by the ANT-ligand” value in series [2] is reported as “inhibited by pan-caspase inhibitors (z-VAD-fmk, Q-VD-OPH) but not by the cathepsin B inhibitor (Z-FA-fmk)”; in series [2] (listed as compound 1), “abolished by caspase inhibitors”. Further, the “toxicity on normal lung fibroblasts” value in series [3] is on record as “low toxicity”; in series [3] (listed as compound 1), “minor compared to tumor cells”.
